Source: US20110275685A1, “SALT AND POLYMORPHS OF A KINESIN INHIBITOR COMPOUND” (priority 2009, published 2011)
Where a name gives a salt, the structure may show the parent alone. Read-outs that look alike come from different tables or passages of the source.

What was measured:
[1] = Solid state stability of the salts (HPLC, colour); details: Bulk (HPLC)
From the text: Tests for solid state stability were made for the mesylate, tosylate and hippurate salts as prepared above.

[2] = Stability of liquid formulations of the salts; details: for stability in DMSO: either diluted or not
Method: From the mesylate, tosylate and hippurate salts as prepared above, liquid formulations were prepared by dissolving/suspending these salts in a solvent/suspension medium. Stability tests were made on these liquid formulations. The amount of degradation products and the degree of discoloration were established.

[3] = Weight loss on drying by thermogravimetry (hygroscopicity); format: physicochemical; details: for hygroscopicity: judged from weight loss as prepared vs 1 day at 92% relative humidity
From the text: The weight loss (%) on drying, measured by thermogravimetry, of the salt as prepared was 1.12%. If kept for 1 day at 92% relative humidity, the weight loss was 1.71%.
The weight loss (%) on drying, measured by thermogravimetry, of the salt as prepared was 2.08%. If kept for 1 day at 92% relative humidity, the weight loss was 2.21%.
The weight loss (%) on drying, measured by thermogravimetry, of the salt as prepared was 1.76%. If kept for 1 day at 92% relative humidity, the weight loss was 2.14%.

[4] = Solubility of the obtained material; format: physicochemical; details: thermodynamic from solid
Method: 2.40 g of amorphous N-((S)-3-amino-4-fluorobutyl)-N-((R)-1-(1-benzlyl-4-(2,5-difluoro-phenyl)-1H-imidazol-2-yl)-2,2-dimethylpropyl)-2-hydroxyacetamide were dissolved at 50° C. in 9 ml acetonitrile/water 95:5 v/v having a water activity of 0.6, and stirred. Within about 1 minute, a suspension was formed. Another 6 ml of acetonitrile/water 95:5 v/v were added. Subsequently, the suspension was cooled to room temperature in about 1 hour and stirred for 14 hours. Then, the suspension was filtered and air dried for about 5 minutes. Yield: 1.82 g (75%). The obtained material was analyzed by X-ray diffraction (FIG. 1).

[5] = 2 weeks, 50° C., tight container
[6] = Xenon light (approx. 1200 kLuxh)
[7] = 0.1% solutions or suspensions, 1 week, 50° C., Methanol
[8] = 0.1% solutions or suspensions, 1 week, 50° C., pH 3
[9] = 0.1% solutions or suspensions, 1 week, 50° C., pH 4.5
[10] = 0.1% solutions or suspensions, 1 week, 50° C., pH 5
[11] = 0.1% solutions or suspensions, 1 week, 50° C., pH 7
[12] = 2% solutions or suspensions, 1 day, room temperature, DMSO
[13] = 2% solutions or suspensions, 1 day, room temperature, Dilution pH 6.8 (diluted with buffer 1:100)
[14] = 5% solutions, 1 day, room temperature, DMSO
[15] = 5% solutions, 1 day, room temperature, Dilution pH 6.8

CC(C)(C)[C@H](c1nc(-c2cc(F)ccc2F)cn1Cc1ccccc1)N(CC[C@H](N)CF)C(=O)CO [Hippurate, N-((S)-3-amino-4-fluorobutyl)-N-((R)-1-(1-benzlyl-4-(2,5-difluorophenyl)-1H-imidazol-2-yl)-2,2-dimethylpropyl)-2-hydroxyacetamide]
Amount of degradation products [%] ([1]; 2 weeks, 50° C., 75% r.h.): 1.02% | Amount of degradation products [%] [1, 5]: 0.79% | Amount of degradation products [%] [1, 6]: 0.43% | Amount of degradation products [%] [2, 7]: 11.81% | Amount of degradation products [%] [2, 8]: 0.48% | Amount of degradation products [%] [2, 9]: 1.03% | Amount of degradation products [%] [2, 10]: 1.80% | Amount of degradation products [%] [2, 11]: 5.32% | Amount of degradation products [%] [2, 12]: 0.78% | Amount of degradation products [%] [2, 13]: 0.82% | Amount of degradation products [%] [2, 14]: 0.94% | Amount of degradation products [%] [2, 15]: 0.84% | stability in DMSO [2]: very stable | hygroscopicity [3]: low hygroscopicity | weight loss (%) on drying, measured by thermogravimetry ([3]; kept for 1 day at 92% relative humidity, listed as hippurate salt): 2.14% | weight loss (%) on drying, measured by thermogravimetry ([3]; salt as prepared, listed as hippurate salt): 1.76%

CC(C)(C)[C@H](c1nc(-c2cc(F)ccc2F)cn1Cc1ccccc1)N(CC[C@H](N)CF)C(=O)CO [Mesylate, N-((S)-3-amino-4-fluorobutyl)-N-((R)-1-(1-benzlyl-4-(2,5-difluorophenyl)-1H-imidazol-2-yl)-2,2-dimethylpropyl)-2-hydroxyacetamide]
Amount of degradation products [%] ([1]; 2 weeks, 50° C., 75% r.h.): <0.05% | Amount of degradation products [%] [1, 5]: 0.07% | Amount of degradation products [%] [1, 6]: <0.05% | Amount of degradation products [%] [2, 7]: 0.21% | Amount of degradation products [%] [2, 8]: 0.25% | Amount of degradation products [%] [2, 9]: 0.69% | Amount of degradation products [%] [2, 10]: 0.71% | Amount of degradation products [%] [2, 11]: 3.87% | Amount of degradation products [%] [2, 12]: 0.07% | Amount of degradation products [%] [2, 13]: 0.19% | Amount of degradation products [%] [2, 14]: <0.05% | Amount of degradation products [%] [2, 15]: 0.30% | stability in DMSO [2]: very stable | stability in methanol ([2]; in methanol): very stable | hygroscopicity [3]: low hygroscopicity | weight loss (%) on drying, measured by thermogravimetry ([3]; kept for 1 day at 92% relative humidity, listed as mesylate salt): 2.21% | weight loss (%) on drying, measured by thermogravimetry ([3]; salt as prepared, listed as mesylate salt): 2.08%

CC(C)(C)[C@H](c1nc(-c2cc(F)ccc2F)cn1Cc1ccccc1)N(CC[C@H](N)CF)C(=O)CO [Tosylate, N-((S)-3-amino-4-fluorobutyl)-N-((R)-1-(1-benzlyl-4-(2,5-difluorophenyl)-1H-imidazol-2-yl)-2,2-dimethylpropyl)-2-hydroxyacetamide]
Amount of degradation products [%] (1 week, 0.1 %): 0.35% | Amount of degradation products [%] (1 week, 0.1 %, pH 3): 0.27% | Amount of degradation products [%] (1 week, 0.1 %, pH 4.5): 0.59% | Amount of degradation products [%] (1 week, 0.1 %, pH 5): 1.81% | Amount of degradation products [%] (1 week, 0.1 %, pH 7): 7.60% | Amount of degradation products [%] (1 day, 0.02 %, pH 6.8): 0.33% | Amount of degradation products [%] (1 day, 2 %): 0.14% | Amount of degradation products [%] (1 day, 5 %): 0.15% | Amount of degradation products [%] (1 day, pH 6.8): 0.11% | hygroscopicity [3]: low hygroscopicity | weight loss (%) on drying, measured by thermogravimetry ([3]; kept for 1 day at 92% relative humidity, listed as tosylate salt): 1.71% | weight loss (%) on drying, measured by thermogravimetry ([3]; salt as prepared, listed as tosylate salt): 1.12%

CC(C)(C)[C@H](c1nc(-c2cc(F)ccc2F)cn1Cc1ccccc1)N(CC[C@H](N)CF)C(=O)CO [crystalline form D, N-((S)-3-amino-4-fluorobutyl)-N-((R)-1-(1-benzlyl-4-(2,5-difluorophenyl)-1H-imidazol-2-yl)-2,2-dimethylpropyl)-2-hydroxyacetamide mesylate]
solubility ([4]; 0.1 N HCl, pH 1, simulated gastric fluid, read-out: solubility in 0.1 N HCl): 1400 µg/mL | solubility ([4]; buffer pH 6.8, pH 6.8, aqueous buffer, read-out: solubility in buffer with pH 6.8): 10 µg/mL | solubility ([4]; water, read-out: solubility in water): 4400 µg/mL
